Results taken from US10294202B2, “Pyrrolidinones as herbicides” (FMC Corporation, priority 2013, dated 2019).

Legend:
corn = experiment: Test A pre-/postemergence herbicide test; assay type: in vivo, Zea mays; conditions: Postemergence
How it was run: (§1)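 Greenhouse pot test with pre- and postemergence application of surfactant-containing solvent formulations. Postemergence plants were 2–10 cm, one- to two-leaf stage. Response scored visually after ~10 days, 0 (no effect) to 100 (complete control).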

waterhemp = experiment: Test C pre-/postemergence herbicide test; assay type: in vivo, Amaranthus rudis
How it was run: (§2)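 Greenhouse pots; formulation = non-phytotoxic solvent mix + surfactant. PRE onto seeds in loam:sand; POST at 1–4 leaves (2–18 cm) in peat moss/vermiculite medium. Read-out: visual % control vs untreated, day 13–15.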

ryegrass, Italian = experiment: Test C pre-/postemergence herbicide test; assay type: in vivo, Lolium multiflorum
How it was run: as §2

rice = experiment: Test B flooded paddy test; assay type: in vivo, Oryza sativa; conditions: 1000 g ai/ha, Flood; scale of 0 to 100 where 0 is no effect and 100 is complete control
How it was run: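 2-leaf plants; flood 3 cm over soil; compound into paddy water; depth held. Greenhouse 13–15 d. Visual rating vs controls, 0 (no effect) to 100 (complete control); dash = not tested.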

giant foxtail = experiment: Test A pre-/postemergence herbicide test; assay type: in vivo, Setaria faberii
How it was run: as §1

nutsedge, yellow = experiment: Test C pre-/postemergence herbicide test; assay type: in vivo, Cyperus esculentus
How it was run: as §2

ragweed = experiment: Test C pre-/postemergence herbicide test; assay type: in vivo, Ambrosia elatior
How it was run: as §2

johnsongrass = experiment: Test C pre-/postemergence herbicide test; assay type: in vivo, Sorghum halepense
How it was run: as §2

galium = experiment: Test C pre-/postemergence herbicide test; assay type: in vivo, Galium aparine
How it was run: as §2

pigweed [1] = experiment: Test A pre-/postemergence herbicide test; assay type: in vivo, Amaranthus retroflexus; conditions: for Plant response rating, Pigweed: 125 g ai/ha
How it was run: as §1

pigweed [2] = experiment: Test C pre-/postemergence herbicide test; assay type: in vivo, Amaranthus retroflexus
How it was run: as §2

[3] = Postemergence, 31 g ai/ha, scale 0 to 100 (0 no effect, 100 complete control)
[4] = Postemergence, 62 g ai/ha, scale 0 (no effect) to 100 (complete control)
[5] = Postemergence, 125 g ai/ha, scale 0 to 100 (0 no effect, 100 complete control)
[6] = Postemergence, 250 g ai/ha, scale 0 to 100 (0 no effect, 100 complete control)
[7] = Preemergence, 62 g ai/ha, scale 0 to 100 (0 no effect, 100 complete control)
[8] = Preemergence, 125 g ai/ha, scale 0 to 100
[9] = Preemergence, 31 g ai/ha, scale 0 to 100
[10] = Preemergence, 500 g ai/ha, visual rating on 0 to 100 scale (0 no effect, 100 complete control)

Compound: O=C1NCC(c2ccc(F)c(F)c2)C1C(=O)Nc1ccc(F)c(F)c1F (centres unmarked) [Compound 346]
- Plant response rating, Corn (corn; 125 g ai/ha, visual rating on 0 to 100 scale (0 no effect, 100 complete control), approx. 10 days): 20
- Plant response rating, Corn (corn; 500 g ai/ha, 0 to 100 scale (0 no effect, 100 complete control)): 40
- Plant response rating, Waterhemp (waterhemp; [3]): 0
- Plant response rating, Waterhemp (waterhemp; [4]): 0
- Plant response rating, Waterhemp (waterhemp; [5]): 15
- Plant response rating, Waterhemp (waterhemp; [6]): 40
- Waterhemp plant response rating (waterhemp; [7]): 25
- Plant response rating, Waterhemp (waterhemp; [8]): 10
- Plant response rating, Waterhemp (waterhemp; [9]): 75
- Plant response rating, Ryegrass, Italian (ryegrass, Italian; [3]): 0
- Plant response rating, Ryegrass, Italian (ryegrass, Italian; [4]): 0
- Plant response rating, Ryegrass, Italian (ryegrass, Italian; [5]): 0
- Plant response rating, Ryegrass, Italian (ryegrass, Italian; [6]): 0
- Ryegrass, Italian plant response rating (ryegrass, Italian; [7]): 10
- Plant response rating, Ryegrass, Italian (ryegrass, Italian; [8]): 5
- Plant response rating, Ryegrass, Italian (ryegrass, Italian; [9]): 0
- Plant response rating, Rice (rice): 0
- Plant response rating, Foxtail, Giant (giant foxtail; Postemergence, 125 g ai/ha, visual rating on 0 to 100 scale (0 no effect, 100 complete control), approx. 10 days): 80
- Plant response rating, Foxtail, Giant (giant foxtail; Postemergence, 500 g ai/ha, 0 to 100 scale (0 no effect, 100 complete control)): 90
- Plant response rating, Foxtail, Giant (giant foxtail; Preemergence, 125 g ai/ha, 0 to 100 scale where 0 is no effect and 100 is complete control): 90
- Foxtail, Giant plant response rating (giant foxtail; [10]): 90
- Plant response rating, Nutsedge, Yellow (nutsedge, yellow; [3]): 0
- Plant response rating, Nutsedge, Yellow (nutsedge, yellow; [4]): 0
- Plant response rating, Nutsedge, Yellow (nutsedge, yellow; [5]): 0
- Plant response rating, Nutsedge, Yellow (nutsedge, yellow; [6]): 5
- Nutsedge, Yellow plant response rating (nutsedge, yellow; [7]): 0
- Plant response rating, Nutsedge, Yellow (nutsedge, yellow; [8]): 0
- Plant response rating (scale of 0 to 100), Nutsedge, Yellow (nutsedge, yellow; Preemergence, 250 g ai/ha): 0
- Plant response rating, Nutsedge, Yellow (nutsedge, yellow; [9]): 0
- Plant response rating, Ragweed (ragweed; [3]): 0
- Plant response rating, Ragweed (ragweed; [4]): 0
- Plant response rating, Ragweed (ragweed; [5]): 0
- Plant response rating, Ragweed (ragweed; [6]): 20
- Ragweed plant response rating (ragweed; [7]): 35
- Plant response rating, Ragweed (ragweed; [8]): 35
- Plant response rating, Ragweed (ragweed; [9]): 50
- Plant response rating, Johnsongrass (johnsongrass; [3]): 100
- Plant response rating, Johnsongrass (johnsongrass; [4]): 0
- Plant response rating, Johnsongrass (johnsongrass; [5]): 0
- Plant response rating, Johnsongrass (johnsongrass; [6]): 0
- Johnsongrass plant response rating (johnsongrass; [7]): 0
- Plant response rating, Johnsongrass (johnsongrass; [8]): 20
- Plant response rating (scale of 0 to 100), Johnsongrass (johnsongrass; Preemergence, 250 g ai/ha): 60
- Plant response rating, Johnsongrass (johnsongrass; [9]): 0
- Plant response rating, Galium (galium; [3]): 30
- Plant response rating, Galium (galium; [4]): 25
- Plant response rating, Galium (galium; [5]): 40
- Plant response rating, Galium (galium; [6]): 70
- Galium plant response rating (galium; [7]): 20
- Plant response rating, Galium (galium; [8]): 90
- Plant response rating (scale of 0 to 100), Galium (galium; Preemergence, 250 g ai/ha): 90
- Plant response rating, Galium (galium; [9]): 10
- Plant response rating, Pigweed (pigweed [1]; Postemergence, visual rating on 0 to 100 scale (0 no effect, 100 complete control), approx. 10 days): 0
- Plant response rating, Pigweed (pigweed [1]; Preemergence, 0 to 100 scale where 0 is no effect and 100 is complete control): 20
- Pigweed plant response rating (pigweed [1]; [10]): 30
- Plant response rating, Pigweed (pigweed [2]; [3]): 5
- Plant response rating, Pigweed (pigweed [2]; [4]): 5
- Plant response rating, Pigweed (pigweed [2]; [5]): 20
- Plant response rating, Pigweed (pigweed [2]; [6]): 40
- Pigweed plant response rating (pigweed [2]; [7]): 55
- Plant response rating, Pigweed (pigweed [2]; [8]): 60
- Plant response rating, Pigweed (pigweed [2]; [9]): 40
